Measurements: ChEMBL document CHEMBL1201862, “PubChem BioAssay data set” (2004)
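Values below derive from 48-hour exposures of cells grown in 96-well plates, with endpoints linearly interpolated between the two concentrations bracketing the appropriate inhibition level. GI50 = concentration required for 50% inhibition of growth.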 The source made the active and inactive calls. Cut-off read from the data, not from the text of the source: active = GI50 up to about 1.1 µM and inactive = higher.

What was measured:
Assay in all cases: NCI-60 cell line screen, 48 h
[1] = tested on: COLO 205
[2] = tested on: SNB-78
[3] = tested on: HCT-15
[4] = tested on: Malme-3M
[5] = tested on: UACC-62
[6] = tested on: DMS-114
[7] = tested on: SK-MEL-2
[8] = tested on: SNB-75
[9] = tested on: OVCAR-8
[10] = tested on: RPMI-8226
[11] = tested on: NCI-H522
[12] = tested on: EKVX
[13] = tested on: HCT-116
[14] = tested on: 786-0
[15] = tested on: NCI-H23
[16] = tested on: DMS-273
[17] = tested on: U-251
[18] = tested on: CAKI-1
[19] = tested on: HT-29
[20] = tested on: HCC 2998
[21] = tested on: LOX IMVI
[22] = tested on: DLD-1
[23] = tested on: SNB-19
[24] = tested on: SW-620
[25] = tested on: XF498
[26] = tested on: TK-10
[27] = tested on: OVCAR-5
[28] = tested on: SF-295
[29] = tested on: CCRF-CEM
[30] = tested on: HOP-62
[31] = tested on: SK-MEL-5
[32] = tested on: UACC-257
[33] = tested on: SF-539
[34] = tested on: HOP-18
[35] = tested on: SK-OV-3
[36] = tested on: LXFL 529
[37] = tested on: SK-MEL-28
[38] = tested on: KM12
[39] = tested on: OVCAR-4
[40] = tested on: MOLT-4
[41] = tested on: M19-MEL
[42] = tested on: NCI-H226
[43] = tested on: K562
[44] = tested on: KM-20L2
[45] = tested on: OVCAR-3
[46] = tested on: SN12C
[47] = tested on: NCI-H460
[48] = tested on: A549
[49] = tested on: SF-268
[50] = tested on: UO-31
[51] = tested on: IGROV-1
[52] = tested on: HL-60
[53] = tested on: A498
[54] = tested on: ACHN
[55] = tested on: HOP-92
[56] = tested on: SR
[57] = tested on: M14
[58] = tested on: RXF 393

c1ccc2c(c1)Sc1ccccc1N2C1CN2CCC1CC2 (centres undefined)
GI50 [1]: 16.8 µM (inactive) | GI50 [2]: 14.4 µM (inactive) | GI50 [3]: 16.8 µM | GI50 [4]: 16.3 µM (inactive) | GI50 [5]: 15.2 µM (inactive) | GI50 [6]: 17.9 µM (inactive) | GI50 [7]: 4.46 µM (inactive) | GI50 [8]: 6 µM (inactive) | GI50 [9]: 16.4 µM (inactive) | GI50 [10]: 23.1 µM (inactive) | GI50 [11]: 18.8 µM (inactive) | GI50 [12]: 13 µM (inactive) | GI50 [13]: 15.5 µM (inactive) | GI50 [14]: 13 µM (inactive) | GI50 [15]: 24.5 µM (inactive) | GI50 [16]: 16.4 µM (inactive) | GI50 [17]: 15.6 µM (inactive) | GI50 [18]: 17.2 µM (inactive) | GI50 [19]: 17.3 µM (inactive) | GI50 [20]: 14.5 µM (inactive) | GI50 [21]: 10.9 µM (inactive) | GI50 [22]: 15.8 µM (inactive) | GI50 [23]: 18.8 µM (inactive) | GI50 [24]: 16.4 µM (inactive) | GI50 [25]: 13.9 µM (inactive) | GI50 [26]: 14 µM (inactive) | GI50 [27]: > 10 µM (inactive) | GI50 [28]: 15.3 µM (inactive) | GI50 [29]: 16.5 µM (inactive) | GI50 [30]: 12.9 µM (inactive) | GI50 [31]: 15.6 µM (inactive) | GI50 [32]: 15.5 µM (inactive) | GI50 [33]: 14 µM (inactive) | GI50 [34]: 18.2 µM (inactive) | GI50 [35]: 19.5 µM (inactive) | GI50 [36]: 16.9 µM (inactive) | GI50 [37]: 15.8 µM (inactive) | GI50 [38]: 15.2 µM (inactive) | GI50 [39]: 17.7 µM (inactive) | GI50 [40]: 12.8 µM (inactive) | GI50 [41]: 16 µM (inactive) | GI50 [42]: 4.09 µM (inactive) | GI50 [43]: 13.7 µM (inactive) | GI50 [44]: 15.2 µM (inactive) | GI50 [45]: 15.8 µM (inactive) | GI50 [46]: 14.2 µM (inactive) | GI50 [47]: 16.1 µM (inactive) | GI50 [48]: 16.7 µM (inactive) | GI50 [49]: 16.4 µM (inactive) | GI50 [50]: 16.7 µM (inactive) | GI50 [51]: 18.9 µM (inactive) | GI50 [52]: 14.9 µM (inactive) | GI50 [53]: 8.36 µM (inactive) | GI50 [54]: 16.9 µM (inactive)

NC(=S)N1N=C2c3ccccc3CC[C@H]2[C@@H]1c1ccc(Cl)cc1
GI50 [1]: 17.9 µM (inactive) | GI50 [2]: 87.3 µM (inactive) | GI50 [3]: 33.3 µM | GI50 [4]: 19.4 µM (inactive) | GI50 [5]: 27.9 µM (inactive) | GI50 [6]: 23.9 µM (inactive) | GI50 [55]: 22.3 µM (inactive) | GI50 [7]: 22.3 µM (inactive) | GI50 [9]: 31.6 µM (inactive) | GI50 [10]: 18.6 µM (inactive) | GI50 [11]: 9.18 µM (inactive) | GI50 [12]: 37.8 µM (inactive) | GI50 [13]: 15.5 µM (inactive) | GI50 [56]: 26.2 µM (inactive) | GI50 [14]: 30.6 µM (inactive) | GI50 [15]: 24.4 µM (inactive) | GI50 [16]: 24.7 µM (inactive) | GI50 [17]: 37.8 µM (inactive) | GI50 [57]: 28.2 µM (inactive) | GI50 [19]: 24.9 µM (inactive) | GI50 [20]: 36.7 µM (inactive) | GI50 [21]: 34.8 µM (inactive) | GI50 [22]: 31.7 µM (inactive) | GI50 [23]: 47.4 µM (inactive) | GI50 [24]: 38.4 µM (inactive) | GI50 [25]: 26.4 µM (inactive) | GI50 [26]: 45.7 µM (inactive) | GI50 [27]: 47.6 µM (inactive) | GI50 [28]: 26.7 µM (inactive) | GI50 [29]: 41.3 µM (inactive) | GI50 [30]: 30.1 µM (inactive) | GI50 [58]: 30 µM (inactive) | GI50 [32]: 25.2 µM (inactive) | GI50 [33]: 41.7 µM (inactive) | GI50 [34]: 18.6 µM (inactive) | GI50 [35]: 36.9 µM (inactive) | GI50 [36]: 21.2 µM (inactive) | GI50 [37]: 40.8 µM (inactive) | GI50 [38]: 29 µM (inactive) | GI50 [39]: 30.8 µM (inactive) | GI50 [40]: 18.9 µM (inactive) | GI50 [41]: 30.6 µM (inactive) | GI50 [42]: 16.7 µM (inactive) | GI50 [43]: 19.5 µM (inactive) | GI50 [44]: 29.8 µM (inactive) | GI50 [45]: 28.2 µM (inactive) | GI50 [46]: 30.6 µM (inactive) | GI50 [47]: 27 µM (inactive) | GI50 [48]: 30 µM (inactive) | GI50 [49]: 32.5 µM (inactive) | GI50 [50]: 20.8 µM (inactive) | GI50 [51]: 19.4 µM (inactive) | GI50 [52]: 17.6 µM (inactive) | GI50 [53]: 35.5 µM (inactive) | GI50 [54]: 24.4 µM (inactive)
